Where two headings read alike, the source gives them in different places. Where a SMILES comes first, the peptide text is derived from it. Where no end group is shown, it is not given here. [ ]: non-standard residue; d: D form. The star is where a group is joined. 5FAM = O=C1OC2(c3ccc(O)cc3Oc3cc(O)ccc32)c2ccc(C(=O)*)cc21; pT = C[C@@H](OP(=O)(O)O)[C@H](N)C(=O)O; pS = N[C@@H](COP(=O)(O)O)C(=O)O; Ahx = NCCCCCC(=O)O
Legend:
[1] = biological target: T1, full-length (FL) human 14-3-3γ protein (Homo sapiens, UniProt P61981); test: Fluorescence anisotropy (FA) assay of FAM-labeled peptides binding to 14-3-3γ; conditions: for Kd: 14-3-3γ FL dilution series (starting at 500 μM) to 10 nM FAM-labeled peptide, 10 mM HEPES pH 7.4, 150 mM NaCl, 0.1% Tween20, 1 mg/mL BSA, room temperature, Hill fit, mean ± SD; for Binding in the FA assay (in words): 14-3-3γ, 10 nM FAM-labeled peptide
T1 construct: The full-length (FL) human 14-3-3γ protein was expressed from a pPROEX plasmid; His6; made in house; host or cells: E. coli BL21(DE3)
T1 sequence (P61981 1-247): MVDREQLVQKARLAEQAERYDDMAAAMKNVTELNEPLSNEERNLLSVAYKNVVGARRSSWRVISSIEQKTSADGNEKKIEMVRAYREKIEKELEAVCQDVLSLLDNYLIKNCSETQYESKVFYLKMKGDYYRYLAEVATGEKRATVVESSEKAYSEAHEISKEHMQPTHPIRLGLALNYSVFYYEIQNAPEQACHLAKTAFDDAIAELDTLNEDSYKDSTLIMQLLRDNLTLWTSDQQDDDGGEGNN
Experimental: To study the binding of the fluorescently labelled peptides to 14-3-3, Fluorescence Anisotropy (FA) assays were carried out.[23] In the case of binding, tumbling of the peptide with the attached fluorophore will slow down and the emitted light will be polarized. This will lead to a higher anisotropy.[79] For all experiments, 14-3-3γ was used as it was shown in multiple experiments to be the strongest binding variant suitable for experimental screening.[80] The FAM-labeled peptides and the 14-3-3γ FL protein were diluted in buffer (10 mM HEPES pH 7.4, 150 mM NaCl, 0.1% Tween20, 1 mg mL^−1 BSA).
Dilution series of 14-3-3γ proteins (starting at 500 μM) were made to 10 nM of the FAM-labeled peptides in black, round-bottom 384-microwell (Corning) in a final sample volume of 10 μL. Fluorescence anisotropy values were measured using a Tecan Spark Control at room temperature filter set lex: 485 ± 20 nm, lem: 535 ± 25 nm, mirror: Dichroic 510, flashes: 30, integration time: 40 μs, settle time: 1 μs; gain: optimized per peptide, and Z-position: calculated from well. Wells containing only FAM-peptide were used to set as G-factor. The KD values were obtained from fitting the data using Origin 2020 with a Sigmoid Hill1 function (using the Hill equation). Data shown is the average and standard deviation of triplicates. For dose–response curves on a linear scale seep SI Fig. S2.

[2] = biological target: T2, full-length (FL) human 14-3-3γ protein (human, UniProt P61981 1-247); test: fluorescence polarisation; fluorescence anisotropy; dilution series of 14-3-3γ (starting at 500 μM) to 10 nM FAM-labeled peptide; 10 mM HEPES pH 7.4, 150 mM NaCl, 0.1% Tween20, 1 mg/mL BSA; room temperature; Hill fit; triplicates; conditions: both partners purified
T2 construct: 14-3-3 gamma, human, full length; also called 14-3-3γ FL
T2 sequence (looked up): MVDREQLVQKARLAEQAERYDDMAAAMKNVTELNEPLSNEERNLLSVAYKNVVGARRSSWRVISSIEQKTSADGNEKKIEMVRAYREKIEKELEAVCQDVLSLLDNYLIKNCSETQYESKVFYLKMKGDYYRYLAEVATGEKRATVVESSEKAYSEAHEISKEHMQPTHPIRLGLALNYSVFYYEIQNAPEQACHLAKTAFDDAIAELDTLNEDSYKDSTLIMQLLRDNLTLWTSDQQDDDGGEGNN

[3] = biological target: T2, full-length (FL) human 14-3-3γ protein; test: as above; conditions: both partners purified; remark: listed apart in the source

## CC(C)C[C@H](NC(=O)[C@H](CO)NC(=O)[C@H](CC(=O)O)NC(=O)[C@H](CC(=O)O)NC(=O)CNC(=O)[C@H](CC(N)=O)NC(=O)[C@H](COP(=O)(O)O)NC(=O)[C@@H](NC(=O)[C@H](CCCCN)NC(=O)[C@H](CCCNC(=N)N)NC(=O)[C@H](CC(N)=O)NC(=O)[C@H](CC(N)=O)NC(=O)[C@H](CC(N)=O)NC(=O)[C@H](CC(N)=O)NC(=O)CCCCCNC(=O)c1ccc2c(c1)C(=O)OC21c2ccc(O)cc2Oc2cc(O)ccc21)[C@@H](C)O)C(=O)N[C@@H](Cc1ccccc1)C(N)=O [Peptide 5] ({5FAM-Ahx}-NNNNRKT[pS]NGDDSLF-NH2)
[1]; n = 3, read-out: Kd
  Kd: > 500 µM
[1]
  Binding in the FA assay (in words): no binding

## CSCC[C@H](NC(=O)[C@H](CCCNC(=N)N)NC(=O)[C@H](CCCNC(=N)N)NC(=O)[C@H](CC(C)C)NC(=O)[C@H](CCC(=O)O)NC(=O)[C@H](CCCNC(=N)N)NC(=O)CNC(=O)CCCCCNC(=O)c1ccc2c(c1)C(=O)OC21c2ccc(O)cc2Oc2cc(O)ccc21)C(=O)N[C@@H](COP(=O)(O)O)C(=O)N[C@@H](CC(=O)O)C(=O)N[C@@H](CCC(=O)O)C(=O)N[C@@H](Cc1ccccc1)C(=O)N[C@H](C(=O)N[C@@H](CC(=O)O)C(=O)N[C@@H](CO)C(=O)N[C@@H](Cc1ccccc1)C(N)=O)C(C)C [Peptide 7] ({5FAM-Ahx}-GRELRRM[pS]DEFVDSF-NH2)
[1]; n = 3, read-out: Kd
  Kd: > 100 µM

## C[C@H](NC(=O)[C@H](CO)NC(=O)[C@@H]1CCCN1C(=O)[C@H](CO)NC(=O)CNC(=O)[C@H](COP(=O)(O)O)NC(=O)[C@H](CCC(=O)O)NC(=O)[C@H](CO)NC(=O)[C@H](CCCNC(=N)N)NC(=O)[C@H](CCCCN)NC(=O)CNC(=O)[C@@H]1CCCN1C(=O)[C@H](C)NC(=O)CCCCCNC(=O)c1ccc2c(c1)C(=O)OC21c2ccc(O)cc2Oc2cc(O)ccc21)C(=O)NCC(=O)NCC(N)=O [Peptide 8] ({5FAM-Ahx}-APGKRSE[pS]GSPSAGG-NH2)
[1]; n = 3, read-out: Kd
  Kd: > 100 µM

## CC[C@H](C)[C@H](NC(=O)CNC(=O)[C@H](C)NC(=O)[C@H](CCC(=O)O)NC(=O)[C@H](CCC(=O)O)NC(=O)CCCCCNC(=O)c1ccc2c(c1)C(=O)OC21c2ccc(O)cc2Oc2cc(O)ccc21)C(=O)NCC(=O)N[C@@H](CC(=O)O)C(=O)N[C@H](C(=O)N1CCC[C@H]1C(=O)N[C@@H](CO)C(=O)N[C@@H](CC(C)C)C(=O)N[C@@H](CCC(=O)O)C(=O)N[C@@H](CC(=O)O)C(=O)N[C@@H](CCC(=O)O)C(=O)N[C@@H](C)C(N)=O)[C@@H](C)OP(=O)(O)O [Peptide 9] ({5FAM-Ahx}-EEAGIGD[pT]PSLEDEA-NH2)
[1]; n = 3
  Kd: > 500 µM
[1]
  Binding in the FA assay (in words): did not bind

## CC(C)C[C@H](NC(=O)CCCCCNC(=O)c1ccc2c(c1)C(=O)OC21c2ccc(O)cc2Oc2cc(O)ccc21)C(=O)N[C@@H](Cc1c[nH]cn1)C(=O)N[C@@H](CCC(=O)O)C(=O)N[C@@H](CCC(=O)O)C(=O)N[C@H](C(=O)N1CCC[C@H]1C(=O)N1CCC[C@H]1C(=O)N[C@H](C(=O)N[C@H](C(=O)N[C@@H](CO)C(=O)N[C@@H](CO)C(=O)N[C@@H](CC(=O)O)C(=O)N[C@@H](CO)C(=O)N[C@@H](CCC(=O)O)C(=O)N[C@@H](CCC(=O)O)C(N)=O)[C@@H](C)O)[C@@H](C)OP(=O)(O)O)[C@@H](C)O [Peptide 10] ({5FAM-Ahx}-LHEETPP[pT]TSSDSEE-NH2)
[1]; n = 3
  Kd: > 500 µM
[1]
  Binding in the FA assay (in words): did not bind

B1: FOXO3 pS413 peptide (peptide 1), FAM-labelled (peptide)
peptide: {5FAM-Ahx}-GLMQRSS[pS]FPYTTKG-NH2
SMILES: CSCC[C@H](NC(=O)[C@H](CC(C)C)NC(=O)CNC(=O)CCCCCNC(=O)c1ccc2c(c1)C(=O)OC21c2ccc(O)cc2Oc2cc(O)ccc21)C(=O)N[C@@H](CCC(N)=O)C(=O)N[C@@H](CCCNC(=N)N)C(=O)N[C@@H](CO)C(=O)N[C@@H](CO)C(=O)N[C@@H](COP(=O)(O)O)C(=O)N[C@@H](Cc1ccccc1)C(=O)N1CCC[C@H]1C(=O)N[C@@H](Cc1ccc(O)cc1)C(=O)N[C@H](C(=O)N[C@H](C(=O)N[C@@H](CCCCN)C(=O)NCC(N)=O)[C@@H](C)O)[C@@H](C)O
notes: forkhead box O3 (FOXO3), seven residues before and after phosphosite 413; also called FOXO pS413; source: synthetic peptide, bought: GenScript
[2]
  Kd: 1.6 µM

## KVTSKCG[pS]LGNIHHK [Tau-pS324 peptide]
[3]
  Kd: > 100 µM

B2: Tau pT245 peptide (peptide 2), FAM-labelled (peptide)
peptide: SAKSRLQ[pT]APVPMPD-NH2
modifications: not fully specified (N-terminus)
notes: Tau, seven residues before and after phosphosite 245; numbers count on: P10636-8; source: synthetic peptide, bought: GenScript
[2]
  Kd: 8.6 µM
[3]
  Kd: 8.5 ± 0.2 µM

B3: Notch 4 pS1847 peptide (peptide 3), FAM-labelled (peptide)
peptide: {5FAM-Ahx}-FPRARTV[pS]VSVPPHG-NH2
SMILES: CC(C)[C@H](NC(=O)[C@H](COP(=O)(O)O)NC(=O)[C@@H](NC(=O)[C@@H](NC(=O)[C@H](CCCNC(=N)N)NC(=O)[C@H](C)NC(=O)[C@H](CCCNC(=N)N)NC(=O)[C@@H]1CCCN1C(=O)[C@H](Cc1ccccc1)NC(=O)CCCCCNC(=O)c1ccc2c(c1)C(=O)OC21c2ccc(O)cc2Oc2cc(O)ccc21)[C@@H](C)O)C(C)C)C(=O)N[C@@H](CO)C(=O)N[C@H](C(=O)N1CCC[C@H]1C(=O)N1CCC[C@H]1C(=O)N[C@@H](Cc1c[nH]cn1)C(=O)NCC(N)=O)C(C)C
notes: Notch-4, seven residues before and after phosphosite 1847; also called NOTCH pS1847; source: synthetic peptide, bought: GenScript
[2]
  Kd: 70 µM

B4: Tau pS198 peptide (peptide 4), FAM-labelled (peptide)
peptide: {5FAM-Ahx}-SGDRSGY[pS]SPGSPGT-NH2
SMILES: C[C@@H](O)[C@H](NC(=O)CNC(=O)[C@@H]1CCCN1C(=O)[C@H](CO)NC(=O)CNC(=O)[C@@H]1CCCN1C(=O)[C@H](CO)NC(=O)[C@H](COP(=O)(O)O)NC(=O)[C@H](Cc1ccc(O)cc1)NC(=O)CNC(=O)[C@H](CO)NC(=O)[C@H](CCCNC(=N)N)NC(=O)[C@H](CC(=O)O)NC(=O)CNC(=O)[C@H](CO)NC(=O)CCCCCNC(=O)c1ccc2c(c1)C(=O)OC21c2ccc(O)cc2Oc2cc(O)ccc21)C(N)=O
notes: Tau, seven residues before and after phosphosite 198; numbers count on: P10636-8; source: synthetic peptide, bought: GenScript
[2]
  Kd: 71 µM

B5: BAD pS134 peptide (peptide 6), FAM-labelled (peptide)
peptide: {5FAM-Ahx}-KGLPRPK[pS]AGTATQM-NH2
SMILES: CSCC[C@H](NC(=O)[C@H](CCC(N)=O)NC(=O)[C@@H](NC(=O)[C@H](C)NC(=O)[C@@H](NC(=O)CNC(=O)[C@H](C)NC(=O)[C@H](COP(=O)(O)O)NC(=O)[C@H](CCCCN)NC(=O)[C@@H]1CCCN1C(=O)[C@H](CCCNC(=N)N)NC(=O)[C@@H]1CCCN1C(=O)[C@H](CC(C)C)NC(=O)CNC(=O)[C@H](CCCCN)NC(=O)CCCCCNC(=O)c1ccc2c(c1)C(=O)OC21c2ccc(O)cc2Oc2cc(O)ccc21)[C@@H](C)O)[C@@H](C)O)C(N)=O
notes: Bcl-2-associated agonist of cell death (BAD), seven residues before and after phosphosite 134; source: synthetic peptide, bought: GenScript
[2]
  Kd: 15.9 µM

## GSRSRTP[pS]LPTPPTR [Tau-pS214 peptide]
[3]
  Kd: 16.4 ± 0.9 µM

Source: article PMC12360161, “Identifying 14-3-3 interactome binding sites with deep learning” (Digital Discovery, 2025)
